The values below come from patent US20240301023A1 (priority 2020, published 2024).

In data set [1] the target is Kappa opioid receptor (KOR) (Homo sapiens, UniProt P41145). The data set can be described thus: cell-based. Type of data set: cell-based.
Data set [2] concerns the target Delta opioid receptor (DOR) (Homo sapiens, UniProt P41143). The data set can be described thus: cell-based. The format is cell-based.
A further data set has as its target Mu opioid receptor (MOR) (Homo sapiens, UniProt P35372). The data set can be described thus: cell-based. The format is cell-based.
Data set [3] has as its target T1, bovine pancreatic trypsin (Bos taurus, UniProt P00760).
T1 construct: from tissue; host or cells: bovine pancreas
T1 sequence (P00760 24-246): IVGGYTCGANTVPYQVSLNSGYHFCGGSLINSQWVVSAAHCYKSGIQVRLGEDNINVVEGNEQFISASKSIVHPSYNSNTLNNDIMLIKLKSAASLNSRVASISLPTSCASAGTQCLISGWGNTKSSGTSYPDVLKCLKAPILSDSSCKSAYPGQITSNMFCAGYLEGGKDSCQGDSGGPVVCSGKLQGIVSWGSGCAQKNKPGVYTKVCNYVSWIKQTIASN
The data set can be described thus: Stability in bovine trypsin. The format is in vitro ADME. The conditions noted are these: bovine pancreatic trypsin solution; bovine pancreatic trypsin 2.5 μg/mL, NH4HCO3 buffer pH 8-8.5, 37° C., 100 μM peptide. Here is the method: The stability of the peptides was analysed in typsin, plasma and water. Stability of linear peptides is generally low due to rapid degradation by endogenous peptidases and proteases. While stability in bodily fluids is important, absolute stability may not be prudent or desirable due to potential build-up in vivo leading to adverse side effects, and/or hazards to the environment and recirculation of exceptionally stable compounds in waterways. Thus, compounds that are extremely stable in either plasma or typsin are not generally considered “drug-like”.
Stability in bovine trypsin was analysed for SEQ ID Nos. 2 to 7 and 11 to 17. Peptides were added to trypsin solution (bovine pancreatic trypsin 2.5 μg/mL in NH4HCO3 buffer, pH approximately 8-8.5, 37° C.) in a water bath with final concentrations of 100 μM peptide. A 50 μL sample was taken immediately and precipitated in 150 μL of cold acetonitrile (9:1 acetonitrile:water) This sample became the baseline, or t=0 min sample. The trypsin peptide mixture was immediately returned to the water bath and subsequent 50 μL samples were taken at 5, 10, 15, 30, 60 and 120 min. At each time point, the 50 μL sample was collected and immediately added to cold acetonitrile (ACN). Each sample was vortexed for 30 sec and then centrifuged at room temperature (RT) (13K rpm, 5 min). 150 μL of the supernatant was taken and directly place in a glass HPLC vial for LCMS analysis.

A short description of another data set: Stability in rat plasma. The conditions noted are these: both sexes, Wistar, 37° C., 100 μM peptide. Type of data set: in vitro ADME. As to the method: Stability in plasma was assessed in rat plasma. Plasma was collected in-house from adult mixed-gender Wistar rats, prepared using 2% EDTA as per standard practice. Peptides were added to the rat plasma samples at 37° C. in a water bath with final concentrations of 100 μM (1:9 peptide in water:plasma). The assay was then carried out in the same manner as the assay in bovine trypsin.

The nature of a further data set: Stability in water. The conditions noted are these: ultra-pure Milli-Q water. Type of data set: physicochemical. Here is the method: Stability in water was carried out by incubating each candidate in ultra-pure, Milli-Q water (Millipore Corporation). Again, volumes, times and preparation protocols were exactly as described above in plasma stability method above.

The target of another data set is KOR (Homo sapiens, UniProt P41145). The data set can be described thus: cell-based. The format is cell-based.
Chain of KOR (P41145 whole entry): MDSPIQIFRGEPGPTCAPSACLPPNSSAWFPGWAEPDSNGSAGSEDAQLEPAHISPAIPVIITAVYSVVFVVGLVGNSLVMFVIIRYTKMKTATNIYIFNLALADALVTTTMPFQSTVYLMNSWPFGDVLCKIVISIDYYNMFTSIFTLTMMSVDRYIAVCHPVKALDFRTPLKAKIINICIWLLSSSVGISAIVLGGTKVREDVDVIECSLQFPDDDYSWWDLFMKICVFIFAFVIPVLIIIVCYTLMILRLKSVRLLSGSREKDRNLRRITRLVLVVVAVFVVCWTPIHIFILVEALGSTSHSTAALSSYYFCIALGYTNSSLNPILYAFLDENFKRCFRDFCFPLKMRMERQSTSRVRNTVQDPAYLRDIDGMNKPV
The target of another data set is KOPr (Homo sapiens, UniProt P41145). Type of data set: cell-based.
Chain of KOPr (P41145 whole entry): as above

Where two headings read alike, the source gives them in different places. Square brackets hold non-standard residues; d marks the D form. Peptide text beside a SMILES is read from it. Sar = CNCC(=O)O Some results are limits rather than exact numbers.

Chain of Mu opioid receptor (MOR) (P35372 whole entry): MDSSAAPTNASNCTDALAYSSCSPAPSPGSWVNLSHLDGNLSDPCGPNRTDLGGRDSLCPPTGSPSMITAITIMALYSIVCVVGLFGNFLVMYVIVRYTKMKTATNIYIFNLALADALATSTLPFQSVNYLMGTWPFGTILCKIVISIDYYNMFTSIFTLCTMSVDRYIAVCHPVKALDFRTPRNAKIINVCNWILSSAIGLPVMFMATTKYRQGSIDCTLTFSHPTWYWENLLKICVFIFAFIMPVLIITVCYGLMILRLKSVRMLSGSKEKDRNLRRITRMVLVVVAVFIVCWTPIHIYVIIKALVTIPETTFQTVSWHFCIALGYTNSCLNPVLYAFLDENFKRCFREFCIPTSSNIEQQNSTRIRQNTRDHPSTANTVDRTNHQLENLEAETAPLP
Chain of Delta opioid receptor (DOR) (P41143 whole entry): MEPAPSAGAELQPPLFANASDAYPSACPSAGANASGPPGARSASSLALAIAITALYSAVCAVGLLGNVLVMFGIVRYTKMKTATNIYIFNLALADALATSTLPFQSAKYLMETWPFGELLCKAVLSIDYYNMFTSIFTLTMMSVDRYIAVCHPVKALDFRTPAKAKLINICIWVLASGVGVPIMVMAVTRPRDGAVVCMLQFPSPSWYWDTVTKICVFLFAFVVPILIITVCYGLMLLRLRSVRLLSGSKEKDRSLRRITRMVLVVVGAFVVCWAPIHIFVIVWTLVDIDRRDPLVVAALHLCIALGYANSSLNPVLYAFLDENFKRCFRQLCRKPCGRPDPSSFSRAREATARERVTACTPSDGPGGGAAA
Chain of Kappa opioid receptor (KOR) (P41145 whole entry): as the sequence (P41145 whole entry) above

For orientation: EC50 means the concentration giving half of the maximal effect. As usually defined, the half-life is how long it takes for the measured level to halve. A higher half-life goes with slow loss. Regarding `CC(C)C[C@H](NC(=O)[C@H](Cc1ccccc1)NC(=O)CN(C)C(=O)[C@@H](N)Cc1ccc(O)cc1)C(=O)N[C@@H](CCCNC(=N)N)C(=O)N[C@@H](CCCNC(=N)N)C(N)=O` [SEQ ID NO. 2, NH2-Tyr-Sar-Phe-Leu-Arg-Arg-NH2] (H-Y[Sar]FLRR-NH2), in data set [1], the “cAMP assay KOR 1 μM” value was found to be 21.65 and the “cAMP assay KOR 10 μM” value was found to be 32.41. Also, in data set [2], the EC50 is greater than 10000 nM, the “cAMP assay DOR 1 μM” value was −0.47 and the “cAMP assay DOR 10 μM” value came out at 21.96. Further, at Mu opioid receptor (MOR), the EC50 came to 6700 nM, the “cAMP assay MOR 1 μM” value is on record as −2.5 and the “cAMP assay MOR 10 μM” value was 12.41. Besides, the half-life at 100 µM in data set [3] came out at 0.03 h. Also, the half-life at 100 µM in the data set “Stability in rat plasma” is 1.61 h. For the same molecule, the half-life at 100 µM in the data set “Stability in water” is greater than 16.7 h.
Consider `CC(C)C[C@@H](NC(=O)[C@@H](Cc1ccccc1)NC(=O)[C@H](N)Cc1ccccc1)C(=O)N[C@H](CCCCN)C(=O)N1CCC(N)(C(=O)O)CC1` [SEQ ID NO. 35, DPhe-DPhe-DLeu-DLys-Cap-CO2H, reference compound], for which, in data set [1], the “cAMP assay KOR 1 μM” value was found to be 25.93 and the “cAMP assay KOR 10 μM” value came out at 34.61. In addition, in data set [2], the concentration for a half-maximal effect (EC50) was greater than 10000 nM, the “cAMP assay DOR 1 μM” value is reported as −5.72 and the “cAMP assay DOR 10 μM” value is 3.27. For the same molecule, on Mu opioid receptor (MOR), the EC50 is greater than 10000 nM, the “cAMP assay MOR 1 μM” value was 0.37 and the “cAMP assay MOR 10 μM” value was found to be 8.07. This molecule displayed a half-life at 100 µM in data set [3] of 17.6 h. Moreover, the half-life at 100 µM in the data set “Stability in rat plasma” stood at 10.8 h. Further, in the data set “Stability in water”, the half-life at 100 µM was greater than 16.7 h. Also, on KOR, the “KOR desensitisation (change of cAMP maximal response after pre-treatment)” value was “significant reduction maximal effect”. Also, at KOPr, the “bias factor (β) relative to U50488H” value was “no bias either way”; the pERK1/2 activity entry was “time and concentration dependent pERK expression”.
Turning to `CC(C)C[C@H](NC(=O)[C@H](Cc1ccccc1)NC(=O)CNC(=O)CNC(=O)[C@@H](N)Cc1ccc(O)cc1)C(=O)N[C@@H](CCCNC(=N)N)C(=O)N[C@@H](CCCNC(=N)N)C(=O)O` [SEQ ID NO. 38, Tyr-Gly-Gly-Phe-Leu-Arg-Arg, reference compound], the concentration for a half-maximal effect (EC50) is 870 nM in data set [2] (read-out: Activity (EC50, nM) DOR) and 3740 nM on Mu opioid receptor (MOR) (read-out: Activity (EC50, nM) MOR). Further, in the data set “Stability in water”, the half-life at 100 µM is greater than 16.7 h. In addition, on KOR, the “KOR desensitisation (change of cAMP maximal response after pre-treatment)” value is listed as “did not show any desensitisation”.
